Data on 29 compounds can be found in patent US20230265432A1, “METHODS AND COMPOSITIONS FOR TREATING ACUTE MYELOID LEUKEMIA” (Sanford Burnham Prebys Medical Discovery Institute, priority 2021, published 2023).

Series [1] concerns SK-BR-3 breast-derived cell line. The following applies: proliferation; cited from earlier work.
The subject of a further series is HT29. Particulars: cited from earlier work.
For another series, the system named is U937 leukemia cell line. Particulars: proliferation; cited from earlier work.
The next series has as its target SET7/9 (Homo sapiens, UniProt Q8WTS6). Particulars: cited from earlier work.
The target in the next series is PARP1 (Homo sapiens, UniProt P09874). Particulars: cited from earlier work.
In a further series the target is Aurora A (Homo sapiens, UniProt O14965). Particulars: cited from earlier work.
For another series, the system named is TNF-a. Particulars: control 325 pg/ml, cited from earlier work.
For series [2], the target named is HAT PCAF (p300/CREB-binding protein-associated factor) (Homo sapiens, UniProt Q92831). Particulars: cited from earlier work.
The target in the next series is Aurora B (Homo sapiens, UniProt Q96GD4). The following applies: cited from earlier work.
In another series the target is Aurora C (Homo sapiens, UniProt Q9UQB9). Particulars: cited from earlier work.
For the next series, the target named is hERG ion-channel (Homo sapiens, UniProt Q12809). The following applies: cited from earlier work.
Series [3] deals with U937 cells expressing an inducible shRNF5 vector. The series can be described thus: Small molecule epigenetic regulator screen. Particulars: 0.5 μM or 5 μM, 6 days, +Dox versus −Dox. Format: cell-based.
A further series has as its system U937 cells. The series can be described thus: Viability/growth of U937 cells (CellTiter Glo). Format: cell-based. Particulars: RNF5-KD U937, 24 h. In general terms: In ATP-based viability assays light output follows the ATP content of the culture.
The test system of a further series is HL-60 cells. The series can be described thus: Viability of HL-60 cells expressing pLKO or shRNF5. Particulars: for IC50: Homo sapiens, HL-60, 48 h.
For another series, the target named is BRD4 (Homo sapiens, UniProt O60885). Particulars: cited from earlier work.
The test system of a further series is PI3K. The following applies: cited from earlier work.
A further series has as its system MCF-7 cells. The following applies: cited from earlier work.
The target of series [4] is nuclear receptor coactivator 3 (Homo sapiens, UniProt Q9Y6Q9). Particulars: cited from earlier work.
Another series addresses PAD1 (Homo sapiens, UniProt Q9ULC6). Particulars: cited from earlier work.
The next series addresses PAD3 (Homo sapiens, UniProt Q9ULW8). Particulars: cited from earlier work.
The test system of a further series is HL-60. The following applies: cytotoxic; cited from earlier work.
A further series concerns HDAC1B. Particulars: cited from earlier work.
Another series deals with HDAC1A. The following applies: cited from earlier work.
Series [5] deals with HIF-1alpha prolyl hydroxylase-2 (PHD2) (Homo sapiens, UniProt Q9GZT9). Particulars: cited from earlier work.
A further series has as its system quinone reductase-1. Particulars: in mouse hepatoma cells; cited from earlier work.
In series [6] the target is O6-alkylguanine-DNA-alkyltransferase (Homo sapiens, UniProt P16455). The following applies: cited from earlier work.
The subject of the next series is maize HD1-A. Particulars: cited from earlier work.
The target in series [7] is menin-MLL fusion protein interaction (Homo sapiens, UniProt O00255). The following applies: cited from earlier work.
The next series has as its target MLL1 (Homo sapiens, UniProt Q03164). Particulars: cited from earlier work.
The next series has as its system BRD2, BRD3, and BRD4. The following applies: cited from earlier work.
A further series deals with HCT116. Particulars: proliferation; cited from earlier work.
The test system of another series is Colo205. The following applies: proliferation; cited from earlier work.
Another series has as its target DNMT3B (Homo sapiens, UniProt Q9UBC3). The following applies: cited from earlier work.
For another series, the target named is Flt3 (Homo sapiens, UniProt P36888). Particulars: cited from earlier work.
A further series addresses RET (Homo sapiens, UniProt P07949). Particulars: cited from earlier work.
Series [8] concerns MOLM-13 cells. The series can be described thus: Viability/growth of MOLM-13 cells (CellTiter Glo). Format: cell-based. Particulars: RNF5-KD versus control.
Series [9] relates to MOLM-13 cells. The series can be described thus: Western blot of apoptotic markers. Type of series: cell-based. Particulars: RNF5-KD versus control. (In general: In western blotting, separated proteins are transferred to a membrane and probed.)

Structures can show the parent of a compound that is named as a salt. Where two headings read alike, the source gives them in different places.

PARP1, sequence (P09874 whole entry, species assumed): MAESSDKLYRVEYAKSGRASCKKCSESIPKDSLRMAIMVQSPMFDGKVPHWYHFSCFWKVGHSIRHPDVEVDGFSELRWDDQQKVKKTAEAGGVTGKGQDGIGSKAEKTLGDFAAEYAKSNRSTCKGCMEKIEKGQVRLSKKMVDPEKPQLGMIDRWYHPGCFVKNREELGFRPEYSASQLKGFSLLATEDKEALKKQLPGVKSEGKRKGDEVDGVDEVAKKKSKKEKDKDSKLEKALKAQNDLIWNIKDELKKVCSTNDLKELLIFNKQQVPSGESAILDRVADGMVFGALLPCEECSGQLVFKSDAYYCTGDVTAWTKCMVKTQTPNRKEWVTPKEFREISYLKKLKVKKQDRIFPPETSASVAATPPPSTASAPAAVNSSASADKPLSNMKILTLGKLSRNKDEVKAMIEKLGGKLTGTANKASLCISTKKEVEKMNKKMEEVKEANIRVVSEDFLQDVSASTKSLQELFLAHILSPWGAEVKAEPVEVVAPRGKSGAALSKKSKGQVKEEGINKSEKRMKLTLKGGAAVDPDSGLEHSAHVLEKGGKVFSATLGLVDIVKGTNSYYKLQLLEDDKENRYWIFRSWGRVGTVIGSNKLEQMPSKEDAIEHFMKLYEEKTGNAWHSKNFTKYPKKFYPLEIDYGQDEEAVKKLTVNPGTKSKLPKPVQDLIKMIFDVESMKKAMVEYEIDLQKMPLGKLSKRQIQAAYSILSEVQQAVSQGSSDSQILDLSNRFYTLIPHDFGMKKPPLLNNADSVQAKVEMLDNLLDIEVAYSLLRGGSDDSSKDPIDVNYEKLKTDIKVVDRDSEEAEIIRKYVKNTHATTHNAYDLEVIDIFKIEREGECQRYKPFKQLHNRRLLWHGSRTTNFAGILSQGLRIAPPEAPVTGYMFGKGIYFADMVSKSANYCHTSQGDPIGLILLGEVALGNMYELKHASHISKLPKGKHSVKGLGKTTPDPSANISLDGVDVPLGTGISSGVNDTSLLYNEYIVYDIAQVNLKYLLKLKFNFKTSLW
SET7/9, sequence (Q8WTS6 whole entry, species assumed): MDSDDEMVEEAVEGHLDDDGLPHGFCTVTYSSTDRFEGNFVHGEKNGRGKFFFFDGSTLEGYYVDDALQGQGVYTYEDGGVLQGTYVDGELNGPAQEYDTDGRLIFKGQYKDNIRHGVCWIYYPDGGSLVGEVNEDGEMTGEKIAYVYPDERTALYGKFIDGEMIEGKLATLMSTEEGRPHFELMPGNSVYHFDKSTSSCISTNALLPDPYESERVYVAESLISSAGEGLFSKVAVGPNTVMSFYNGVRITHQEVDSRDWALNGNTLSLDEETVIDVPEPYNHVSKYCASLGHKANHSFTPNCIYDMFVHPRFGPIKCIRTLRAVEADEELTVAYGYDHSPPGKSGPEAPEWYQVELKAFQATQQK
Aurora C, sequence (Q9UQB9 whole entry): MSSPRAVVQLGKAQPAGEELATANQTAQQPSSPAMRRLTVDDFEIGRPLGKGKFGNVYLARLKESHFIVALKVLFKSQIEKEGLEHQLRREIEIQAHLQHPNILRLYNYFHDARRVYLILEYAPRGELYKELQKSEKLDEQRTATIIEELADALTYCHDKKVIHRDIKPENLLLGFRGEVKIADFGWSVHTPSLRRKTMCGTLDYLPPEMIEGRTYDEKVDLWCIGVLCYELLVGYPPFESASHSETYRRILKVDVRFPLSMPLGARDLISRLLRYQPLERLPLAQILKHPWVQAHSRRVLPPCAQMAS
Aurora B, sequence (Q96GD4 whole entry): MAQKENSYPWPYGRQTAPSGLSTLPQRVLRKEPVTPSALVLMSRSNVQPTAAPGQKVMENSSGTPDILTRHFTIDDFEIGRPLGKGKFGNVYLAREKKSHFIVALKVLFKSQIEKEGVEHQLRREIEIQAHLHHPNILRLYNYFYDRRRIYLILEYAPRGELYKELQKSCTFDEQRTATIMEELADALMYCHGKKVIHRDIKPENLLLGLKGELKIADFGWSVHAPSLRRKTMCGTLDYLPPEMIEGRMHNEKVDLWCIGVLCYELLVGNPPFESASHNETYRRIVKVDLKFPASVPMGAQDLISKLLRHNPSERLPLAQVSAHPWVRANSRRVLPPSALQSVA
Aurora A, sequence (O14965 whole entry): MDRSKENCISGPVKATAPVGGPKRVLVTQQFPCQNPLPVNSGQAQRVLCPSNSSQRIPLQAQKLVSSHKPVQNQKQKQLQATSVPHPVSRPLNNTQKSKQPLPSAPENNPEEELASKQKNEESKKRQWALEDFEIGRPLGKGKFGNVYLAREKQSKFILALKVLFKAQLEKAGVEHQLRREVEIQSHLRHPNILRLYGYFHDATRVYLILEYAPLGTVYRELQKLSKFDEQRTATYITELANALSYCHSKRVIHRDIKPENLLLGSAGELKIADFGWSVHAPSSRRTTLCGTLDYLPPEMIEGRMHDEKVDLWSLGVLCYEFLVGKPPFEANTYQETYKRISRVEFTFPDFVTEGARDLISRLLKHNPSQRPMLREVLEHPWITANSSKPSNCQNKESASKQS
HIF-1alpha prolyl hydroxylase-2 (PHD2), sequence (Q9GZT9 whole entry, species assumed): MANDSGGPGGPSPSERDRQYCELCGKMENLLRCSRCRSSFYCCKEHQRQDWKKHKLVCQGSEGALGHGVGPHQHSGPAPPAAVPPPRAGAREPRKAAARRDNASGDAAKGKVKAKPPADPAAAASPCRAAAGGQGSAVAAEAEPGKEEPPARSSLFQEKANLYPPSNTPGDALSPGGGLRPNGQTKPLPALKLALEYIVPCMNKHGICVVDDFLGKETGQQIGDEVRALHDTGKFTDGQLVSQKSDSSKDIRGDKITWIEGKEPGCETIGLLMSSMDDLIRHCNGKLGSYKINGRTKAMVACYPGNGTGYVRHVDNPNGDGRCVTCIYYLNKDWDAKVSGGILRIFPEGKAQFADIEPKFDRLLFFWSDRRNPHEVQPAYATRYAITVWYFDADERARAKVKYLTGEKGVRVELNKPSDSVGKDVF
menin-MLL fusion protein interaction, sequence (O00255 whole entry, the tested form may be a part): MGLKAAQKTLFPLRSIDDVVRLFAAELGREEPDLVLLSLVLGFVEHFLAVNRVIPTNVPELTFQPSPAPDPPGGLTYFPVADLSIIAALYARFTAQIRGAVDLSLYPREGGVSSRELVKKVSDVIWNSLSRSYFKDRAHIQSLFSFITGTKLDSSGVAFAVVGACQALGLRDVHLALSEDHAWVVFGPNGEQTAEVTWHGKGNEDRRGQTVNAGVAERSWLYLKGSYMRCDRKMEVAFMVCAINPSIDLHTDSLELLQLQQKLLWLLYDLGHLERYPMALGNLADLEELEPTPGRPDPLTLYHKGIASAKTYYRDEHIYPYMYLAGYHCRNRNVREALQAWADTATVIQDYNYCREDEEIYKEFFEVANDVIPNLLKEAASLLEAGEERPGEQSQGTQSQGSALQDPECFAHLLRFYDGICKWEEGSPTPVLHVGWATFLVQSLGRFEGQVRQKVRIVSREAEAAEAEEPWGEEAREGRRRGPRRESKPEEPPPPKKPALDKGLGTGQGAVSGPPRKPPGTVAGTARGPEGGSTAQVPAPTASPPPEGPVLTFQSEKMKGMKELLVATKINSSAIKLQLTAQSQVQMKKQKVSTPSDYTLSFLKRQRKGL
HAT PCAF (p300/CREB-binding protein-associated factor), sequence (Q92831 whole entry): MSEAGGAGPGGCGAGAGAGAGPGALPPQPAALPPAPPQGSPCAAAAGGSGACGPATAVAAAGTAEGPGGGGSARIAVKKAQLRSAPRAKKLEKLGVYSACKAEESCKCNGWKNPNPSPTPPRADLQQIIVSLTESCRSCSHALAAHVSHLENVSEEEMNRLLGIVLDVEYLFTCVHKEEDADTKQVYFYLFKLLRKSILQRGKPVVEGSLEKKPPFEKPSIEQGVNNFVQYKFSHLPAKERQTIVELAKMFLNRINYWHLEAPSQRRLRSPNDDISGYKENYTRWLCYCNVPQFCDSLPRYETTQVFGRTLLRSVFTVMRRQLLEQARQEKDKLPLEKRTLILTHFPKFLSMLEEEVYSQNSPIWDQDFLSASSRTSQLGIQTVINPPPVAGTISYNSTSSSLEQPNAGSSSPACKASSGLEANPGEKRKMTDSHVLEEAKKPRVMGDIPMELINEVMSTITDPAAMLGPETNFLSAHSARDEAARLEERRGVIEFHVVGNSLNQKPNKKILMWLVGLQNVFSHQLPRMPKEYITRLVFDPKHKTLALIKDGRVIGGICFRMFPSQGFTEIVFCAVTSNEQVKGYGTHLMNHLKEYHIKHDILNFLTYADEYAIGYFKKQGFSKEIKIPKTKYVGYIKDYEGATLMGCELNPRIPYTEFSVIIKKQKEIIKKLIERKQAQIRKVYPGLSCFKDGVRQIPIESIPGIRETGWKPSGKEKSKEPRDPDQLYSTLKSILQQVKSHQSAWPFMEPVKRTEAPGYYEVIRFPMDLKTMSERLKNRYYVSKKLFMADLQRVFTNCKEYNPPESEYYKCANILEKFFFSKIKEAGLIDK
PAD3, sequence (Q9ULW8 whole entry, species assumed): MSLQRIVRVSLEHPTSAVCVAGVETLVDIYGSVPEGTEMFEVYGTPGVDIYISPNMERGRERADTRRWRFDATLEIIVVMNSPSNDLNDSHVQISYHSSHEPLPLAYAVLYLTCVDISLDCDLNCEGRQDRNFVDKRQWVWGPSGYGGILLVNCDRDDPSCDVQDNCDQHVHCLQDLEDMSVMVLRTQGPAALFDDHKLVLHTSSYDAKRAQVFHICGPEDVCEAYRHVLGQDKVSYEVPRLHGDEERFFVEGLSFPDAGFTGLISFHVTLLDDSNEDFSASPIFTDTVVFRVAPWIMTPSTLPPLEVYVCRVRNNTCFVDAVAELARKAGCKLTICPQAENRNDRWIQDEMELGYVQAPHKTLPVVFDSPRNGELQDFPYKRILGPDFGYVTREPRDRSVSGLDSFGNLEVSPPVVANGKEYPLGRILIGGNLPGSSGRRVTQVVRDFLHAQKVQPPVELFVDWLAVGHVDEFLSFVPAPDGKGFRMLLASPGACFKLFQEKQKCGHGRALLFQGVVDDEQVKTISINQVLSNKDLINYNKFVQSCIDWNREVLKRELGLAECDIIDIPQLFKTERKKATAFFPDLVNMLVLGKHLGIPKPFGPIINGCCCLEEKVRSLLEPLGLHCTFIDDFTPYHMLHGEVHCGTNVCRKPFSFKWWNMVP

As a reminder, the EC50 is the concentration giving half of the maximal effect. As to `O=C(CCCCCCC(=O)Nc1ccc(I)cc1)NO` [4-iodo-SAHA], the EC50 in series [1] is 1.1 µM; in the series on HT29 (proliferation), 0.95 µM; in the series with U937 leukemia cell line, 0.12 µM. By IC50 is commonly meant the concentration that gives 50% inhibition. With `Cl.O=C([C@@H](Cc1cccc(C(F)(F)F)c1)NS(=O)(=O)c1cc(F)c2c(c1)CCNC2)N1CCCC1` [(R)-PFI-2 (hydrochloride)], on SET7/9, the IC50 is 0.002 µM and the “fold selectivity over a panel of 18 other methyltransferases” value is on record as “nM) that demonstrates greater than 1,000-fold selectivity”.

Usually Ki stands for a measure of affinity in units of concentration, obtained from inhibition or displacement. On to `CN(C)Cc1ccc(-c2nc3cccc4c3n2CCNC4=O)cc1` [AG-14361], for which, on PARP1, the Ki is less than 0.005 µM and the “fold more potent than the benzamides” value is “is at least 1000-fold more potent than the benzamides”. Consider `CCN1CCN(C(=O)Cc2ccc(Nc3ncc(F)c(Nc4ccc(C(=O)Nc5ccccc5Cl)cc4)n3)cc2)CC1` [Aurora A Inhibitor I], for which, at Aurora A, the IC50 is 0.0034 µM and the “fold selectivity for Aurora A than Aurora B” value is 1000 fold.

On to `COCCCn1c(N)c(C(=O)NC2CCCC2)c2nc3ccccc3nc21` [CAY10591], for which the TNF-a levels is 104 pg/mL with TNF-a (at 20 μM) and 53 pg/mL in the series with TNF-a (at 60 μM).

Regarding `CCCCCOc1ccc(/C=C\c2cccc(O)c2C(=O)O)cc1` [CAY10669], in series [2], the IC50 was 662 µM and the “fold improvement in inhibitory potency over anacardic acid” value is recorded as 2 fold. Turning to `Cc1cc(CN2CCN(c3c(Br)cnc4nc(-c5ccc(N6CCN(C)CC6)cc5)[nH]c34)CC2)no1` [CCT137690], the results for the IC50 on Aurora B and at Aurora C were 0.025 µM and 0.019 µM, respectively. Besides, the “effect on hERG ion-channel” value on hERG ion-channel is recorded as “nM. It has little effect on hERG ion-channel”. With `CC(=O)Nc1ccc(C(=O)Nc2ccccc2N)cc1` [CI-994, N-acetyldinaline], in [3], the “viability of shRNF5-expressing cells relative to control WT RNF5 cells” value is listed as “decreased viability of shRNF5-expressing cells”. For the same compound, the “IC50 for CI-994 in terms of cell viability relative to control cells” value in the series on U937 cells is “lower IC50”; with HL-60 cells (RNF5-KD HL-60, 24 h), “lower IC50”.

For `Cc1sc2c(c1C)C(c1ccc(Cl)cc1)=N[C@@H](CC(N)=O)c1nnc(C)n1-2` [CPI-203], the IC50 at BRD4 was 0.037 µM. On to `COc1ccc(-c2nc(N3CCOCC3)c3sc(CN(C)c4ncc(C(=O)NO)cn4)cc3n2)cn1` [CUDC-907], for which the half-inhibitory concentration (IC50) with PI3K is 0.019 µM. On to `COc1cc([C@@H]2c3cc4c(cc3[C@@H](O[C@@H]3O[C@@H]5CO[C@@H](C)O[C@H]5[C@H](O)[C@H]3O)[C@H]3COC(=O)[C@H]23)OCO4)cc(OC)c1O` [Etoposide], for which the values for the half-inhibitory concentration (IC50) (in the series on MCF-7 cells (cell-based cytotoxicity assay); in [4]) were 0.00514 µM and 2.48 µM, respectively. For the compound `NC(=O)[C@H](CCCN=C(N)CF)NC(=O)c1ccccc1` [F-Amidine (trifluoroacetate salt), F-Amidine], the IC50 in the series on MCF-7 cells was 0.5 µM; in the series on HT29 (cytotoxic), 1 µM; at PAD1, 29.5 µM; on PAD3 it was 350 µM; with HL-60, 0.5 µM.

Regarding `CCN(CC)Cc1ccc2cc(COC(=O)Nc3ccc(C(=O)NO)cc3)ccc2c1` [Givinostat (ITF2357), Givinostat], the IC50 in the series on HDAC1B is 0.0075 µM; in the series with HDAC1A it was 0.016 µM. `O=C(O)CNC(=O)c1c(O)c2ccccc2n(Cc2ccccc2)c1=O` [IOX2]: in series [5], the half-maximal inhibitory concentration (IC50) was 0.021 µM and the “fold selectivity over JMJD2A, JMJD2C, JMJD2E, JMJD3, or FIH” value was greater than 100 fold. Regarding `O=C(/C=C/c1ccc(O)cc1)c1ccc(O)cc1O` [Isoliquiritigenin], the “concentration required to double activity” value in the series on quinone reductase-1 is recorded as 1.8 μM in mouse hepatoma cells. Take `Nc1nc(OCc2cc(Br)cs2)c2[nH]cnc2n1` [Lomeguatrib]: the IC50 in series [6] is 0.005 µM. For `Cn1cc(/C=C/C(=O)c2cccc(F)c2)cc1/C=C/C(=O)NO` [MC1568], in the series with maize HD1-A, the IC50 was 0.1 µM and the “fold more selective for HD1-A than HD1-B” value is on record as 34 fold. `CC(C)c1cc2c(N3CCN(C4=NCC(C)(C)S4)CC3)ncnc2s1` [MI-3 (Menin-MLL Inhibitor)]: the IC50 in [7] was 0.648 µM. Consider `CCc1cc2c(N3CCN(c4nncs4)CC3)ncnc2s1` [MI-nc (hydrochloride)], for which the half-maximal inhibitory concentration (IC50) in series [7] is 193 µM.

As for `CCC(CC)(NC(=O)C(C)C)C(=O)N[C@@H](CCCN=C(N)N)C(=O)NC1(C(=O)NC(c2ccc(F)cc2)c2ccc(F)cc2)CCCC1` [MM-102], the concentration for half-maximal inhibition (IC50) on MLL1 is 0.4 µM. Consider `Cc1sc2c(c1C)C(c1ccc(Cl)cc1)=N[C@@H](CC(=O)Nc1ccc(O)cc1)c1nnc(C)n1-2` [OTX015], for which the concentration giving a half-maximal response (EC50) in the series with BRD2, BRD3, and BRD4 was 0.01 to 0.019 µM. As for `Cc1cc(Nc2nn(-c3ccccc3)c(=O)c3ccccc23)n[nH]1` [Phthalazinone pyrazole], the concentration for half-maximal inhibition (IC50) is 1.6 µM in the series with MCF-7 cells, 7.8 µM in the series with HCT116 and 2.9 µM in the series on Colo205. As for `O=c1c(O)c(-c2ccc(O)c(O)c2)oc2cc(O)cc(O)c12` [Quercetin], the IC50 in the series on PI3K is 2.4 to 5.4 µM. Regarding `Cc1cc(Nc2ccc(NC(=O)c3ccc(Nc4ccnc5ccccc45)cc3)cc2)nc(N)n1` [SGI-1027], at DNMT3B, the IC50 was 7.5 µM. For the compound `CCS(=O)(=O)c1cccc(-c2cc(C(=O)NC3CCN(C)CC3)c(C)c3[nH]c4ncc(C)cc4c23)c1` [TAK-901], the IC50 on Aurora B was 0.015 µM. Take `Cc1cnc(Nc2ccc(N3CCN(C)CC3)cc2)nc1Nc1cccc(S(=O)(=O)NC(C)(C)C)c1` [TG101209]: the half-maximal inhibitory concentration (IC50) at Flt3 is 0.025 µM; on RET, 0.017 µM. For `C/C=C(/C)C(=O)O[C@H]1C(C)=C2[C@H]([C@@H]1OC(=O)CCCCCCC)[C@@](C)(OC(C)=O)C[C@H](OC(=O)CCC)[C@@]1(O)[C@H]2OC(=O)[C@@]1(C)O` [Thapsigargin], the viability entry with MOLM-13 cells [8] (thapsigargin 100 nM) is given as “decreased viability of MOLM-13 RNF5-KD cells to a greater extent”. In addition, the apoptotic markers result with MOLM-13 cells [9] (thapsigargin 1 μM) is “increased apoptotic markers to levels higher than those seen in control cells”.

As to `CC(C)C[C@H](NC(=O)[C@H](Cc1ccccc1)NC(=O)c1cnccn1)B(O)O` [bortezomib], the viability result in the series with MOLM-13 cells [8] (BTZ 5 nM) is “decreased viability”. Also, the “apoptotic markers (cleaved caspase-3, PARP)” value in the series with MOLM-13 cells [9] (BTZ 5 nM) is reported as “increased levels of apoptotic markers”. Moreover, the half-maximal inhibitory concentration (IC50) amounted to 0.0054 µM in the series with HL-60 cells (read-out: BTZ IC50, RNF5-KD cells (shRNF5), 48 h) and 0.0096 µM in the series on HL-60 cells (read-out: BTZ IC50, controls (pLKO), 48 h). On to SNS-314 Mesylate, for which, on Aurora C, the half-inhibitory concentration (IC50) was 0.003 µM.
